Data on 24 molecules can be found in patent US20230108906A1, “SUBSTITUTED BICYCLIC AND TRICYCLIC UREAS AND AMIDES, ANALOGUES THEREOF, AND METHODS USING SAME” (Arbutus Biopharma Corporation, priority 2019, published 2023).

In one assay the test system is HBV rcDNA in HepDE19 cells. The assay can be described thus: HepDE19 assay with bDNA quantitation of HBV rcDNA. Type of assay: cell-based, hepatitis B virus (HBV). Conditions: Hepatitis B virus, HepDE19, 168 h, inhibition of rcDNA formation in HepDE19 cells (HepG2 derived), Tet-free medium, 7 day incubation, Quantigene 2.0 bDNA readout, top concentration 25 μM; read-out: DE-19bDNA EC50. On the procedure: HepDE19 Assay with bDNA Quantitation of HBV rcDNA:
HepDE19 cell culture system is a HepG2 (human hepatocarcinoma) derived cell line that supports HBV DNA replication and cccDNA formation in a tetracycline (Tet)-regulated manner and produces HBV rcDNA and a detectable reporter molecule dependent on the production and maintenance of cccDNA (Guo, et al., 2007, J. Virol. 81:12472-12484).
HepDE19 (50,000 cells/well) were plated in 96-well collagen-coated tissue-culture treated microtiter plates in DMEM/F12 medium supplemented with 10% fetal bovine serum, 1% penicillin-streptomycin and 1 μg/mL tetracycline and incubated in a humidified incubator at 37° C. and 5% CO2 overnight. Next day, the cells were switched to fresh medium without tetracycline and incubated for 4 hours at 37° C. and 5% CO2. The cells were treated with fresh Tet-free medium with compounds at concentrations starting at 25 μM and a serial, […], 8-point, titration series in duplicate. The final DMSO concentration in the assay was 0.5%. The plates were incubated for 7 days in a humidified incubator at 37° C. and 5% CO2. Following a 7 day-incubation, the level of rcDNA present in the inhibitor-treated wells was measured using a Quantigene 2.0 bDNA assay kit (Affymetrix, Santa Clara, Calif.) with HBV specific custom probe set and manufacturers instructions. Concurrently, the effect of compounds on cell viability was assessed using replicate plates, plated at a density of 5,000 cells/well and incubated for 4 days, to determine the ATP content as a measure of cell viability using the cell-titer glo reagent (CTG; Promega Corporation, Madison, Wis.) as per manufacturer's instructions. The plates were read using a Victor luminescence plate reader (PerkinElmer Model 1420 Multilabel counter) and the relative luminescence units (RLU) data generated from each well was calculated as % inhibition of the untreated control wells and analyzed using XL-Fit module in Microsoft Excel to determine EC50 and EC90 (bDNA) and CC50 (CTG) values using a 4-parameter curve fitting algorithm.
Representative compounds of the disclosure were tested for their abilities to inhibit formation of relaxed circular DNA (rcDNA) in a HepDE19 assay, as described elsewhere herein.
`CN(C(=O)Nc1ccc(F)c(C(F)F)c1)[C@@H]1COCc2c1c1cc(F)c(F)cc1c(=O)n2CCO` [Compound 251, (S)-1-(8,9-Difluoro-5-(2-hydroxyethyl)-6-oxo-1,4,5,6-tetrahydro-2H-pyrano[3,4-c]isoquinolin-1-yl)-3-(3-(difluoromethyl)-4-fluorophenyl)-1-methylurea]: the EC50 amounted to 0.03 µM.
On the same count and under the same terms, the figure for `CN(C(=O)Nc1ccc(F)c(Cl)c1)C1CCCc2[nH]c(=O)c3c(c21)COCC3` (stereo not drawn) [Compound 80, 3-(3-Chloro-4-fluorophenyl)-1-methyl-1-(5-oxo-3,4,5,6,7,8,9,10-octahydro-1H-pyrano[4,3-c]quinolin-10-yl)urea] is 2.8 µM; for `CN(C(=O)Nc1ccc(F)c(C#N)c1)[C@@H]1COCc2[nH]c(=O)c3cc(F)c(F)cc3c21` (single isomer, unassigned) [Compound 70] it is 0.01 µM.
Still for that read-out and setting: the figure for `CN(C(=O)Nc1ccc(F)c(Cl)c1)C1COCc2[nH]c(=O)c3ccc(F)cc3c21` (stereo not drawn) [Compound 73, 3-(3-Chloro-4-fluorophenyl)-1-(9-fluoro-6-oxo-1,4,5,6-tetrahydro-2H-pyrano[3,4-c]isoquinolin-1-yl)-1-methylurea] is 0.02 µM; for `CN(C(=O)Nc1ccc(F)c(Cl)c1)[C@@H]1COCc2c1c1cc(F)c(F)cc1c(=O)n2CCN` [Compound 257, (S)-1-(5-(2-Aminoethyl)-8,9-difluoro-6-oxo-1,4,5,6-tetrahydro-2H-pyrano[3,4-c]isoquinolin-1-yl)-3-(3-chloro-4-fluorophenyl)-1-methylurea] it is 3.1 µM; for `COc1nc2c(c3cc(F)c(F)cc13)[C@H](N(C)C(=O)Nc1ccc(F)c(C(F)F)c1)COC2` [Compound 234, (S)-1-(8,9-Difluoro-6-methoxy-1,4-dihydro-2H-pyrano[3,4-c]isoquinolin-1-yl)-3-(3-(difluoromethyl)-4-fluorophenyl)-1-methylurea] it is 0.05 µM.
Same read-out and setting: the result for `CCN(C(=O)Nc1ccc(F)c(Cl)c1)[C@@H]1COCc2[nH]c(=O)c3cc(F)c(F)cc3c21` (single isomer, unassigned) [Compound 88] reads 0.01 µM; that for `CN(C(=O)Nc1ccc(F)c(Cl)c1)C1COCc2[nH]c(=O)c3cscc3c21` (stereo not drawn) [Compound 105, 3-(3-Chloro-4-fluorophenyl)-1-methyl-1-(4-oxo-4,5,8,9-tetrahydro-6H-pyrano[3,4-b]thieno[3,4-d]pyridin-9-yl)urea], 0.02 µM.
Consider `CN(C(=O)Nc1ccc(F)c(C(F)F)c1)[C@@H]1COCc2nc(OCCN)c3cc(F)c(F)cc3c21` [Compound 252, (S)-1-(6-(2-Aminoethoxy)-8,9-difluoro-1,4-dihydro-2H-pyrano[3,4-c]isoquinolin-1-yl)-3-(3-(difluoromethyl)-4-fluorophenyl)-1-methylurea], for which the EC50 stood at 0.02 µM.
Still for that read-out and setting: the figure for `COc1nc2c(c3cc(F)c(F)cc13)[C@H](N(C)C(=O)Nc1ccc(F)c(Cl)c1)COC2` [Compound 244, (S)-3-(3-Chloro-4-fluorophenyl)-1-(8,9-difluoro-6-methoxy-1,4-dihydro-2H-pyrano[3,4-c]isoquinolin-1-yl)-1-methylurea] is 0.08 µM.
For `CN(C(=O)Nc1ccc(F)cc1)C1CCCc2[nH]c(=O)c3cc(F)c(F)cc3c21` (stereo not drawn) [Compound 19, 1-(8,9-Difluoro-6-oxo-1,2,3,4,5,6-hexahydrophenanthridin-1-yl)-3-(4-fluorophenyl)-1-methylurea], the EC50 is 0.16 µM.
For `O=C(Nc1ccc(F)c(Cl)c1)N(CCCO)C1CCCc2[nH]c(=O)cc(C(F)(F)F)c21` (stereo not drawn) [Compound 3, 3-(3-Chloro-4-fluorophenyl)-1-(3-hydroxypropyl)-1-(2-oxo-4-(trifluoromethyl)-1,2,5,6,7,8-hexahydroquinolin-5-yl)urea], the EC50 stood at 1.7 µM.

The same assay, now with this note: Hepatitis B virus, HepDE19, 168 h, read-out: DE-19bDNA EC50 (uM), inhibition of rcDNA formation in HepDE19 cells (HepG2 derived), Tet-free medium, 7 day incubation, Quantigene 2.0 bDNA readout, top concentration 25 μM.
With `CN(C(=O)N1Cc2ccc(C(F)(F)F)cc2C1)C1CNCc2[nH]c(=O)c3cc(F)c(F)cc3c21` (single isomer, unassigned) [Compound 231, N-(8,9-Difluoro-6-oxo-1,2,3,4,5,6-hexahydrobenzo[c][1,7]naphthyridin-1-yl)-N-methyl-5-(trifluoromethyl)isoindoline-2-carboxamide], the EC50 was no less than 25 µM.

Still in this assay, the particulars now being: inhibition of rcDNA formation in HepDE19 cells (HepG2 derived), Tet-free medium, 7 day incubation, Quantigene 2.0 bDNA readout, top concentration 25 μM; read-out: DE-19bDNA EC50.
With `CN(C(=O)Nc1ccc(F)c(F)c1)C1COCc2[nH]c(=O)c3c(c21)CCOC3` (single isomer, unassigned) [Compound 94, 3-(3,4-Difluorophenyl)-1-methyl-1-(6-oxo-1,2,4,5,6,7,9,10-octahydrodipyrano[3,4-b:4′,3′-d]pyridin-1-yl)urea], the EC50 was determined as 0.74 µM.
Consider `CN(C(=O)Nc1ccc(F)c(Cl)c1)C1COCc2[nH]c(=O)c3ccccc3c21` (single isomer, unassigned) [Compound 37, 3-(3-Chloro-4-fluorophenyl)-1-methyl-1-(6-oxo-1,4,5,6-tetrahydro-2H-pyrano[3,4-c]isoquinolin-1-yl)urea], for which the EC50 was determined as 0.03 µM.
As to `CN(C(=O)Nc1ccc(F)c(C#N)c1)C1C[S+]([O-])Cc2[nH]c(=O)c3cc(F)c(F)cc3c21` (single isomer, unassigned) [Compound 212, 3-(3-Cyano-4-fluorophenyl)-1-(8,9-difluoro-3-oxido-6-oxo-1,4,5,6-tetrahydro-2H-thiopyrano[3,4-c]isoquinolin-1-yl)-1-methylurea], the EC50 is no less than 25 µM.
Consider `CC(C)CN(C(=O)Nc1ccc(F)c(C#N)c1)C1COCc2[nH]c(=O)c3cc(F)c(F)cc3c21` (single isomer, unassigned) [Compound 121, 3-(3-Cyano-4-fluorophenyl)-1-(8,9-difluoro-6-oxo-1,4,5,6-tetrahydro-2H-pyrano[3,4-c]isoquinolin-1-yl)-1-isobutylurea], for which the EC50 amounted to 0.01 µM.
In the case of `CN(C(=O)Nc1ccc(F)c(Cl)c1)C1CNCc2[nH]c(=O)c3cc(F)c(F)cc3c21` (single isomer, unassigned) [Compound 149, 3-(3-Chloro-4-fluorophenyl)-1-(8,9-difluoro-6-oxo-1,2,3,4,5,6-hexahydrobenzo[c][1,7]naphthyridin-1-yl)-1-methylurea], the EC50 amounted to 0.25 µM.
Consider `CN(C(=O)N1Cc2ccc(Cl)cc2C1)C1CNCc2[nH]c(=O)c3cc(F)c(F)cc3c21` (single isomer, unassigned) [Compound 227, 5-Chloro-N-(8,9-difluoro-6-oxo-1,2,3,4,5,6-hexahydrobenzo[c][1,7]naphthyridin-1-yl)-N-methylisoindoline-2-carboxamide], for which the EC50 came out at 12 µM.
Consider `CN(C(=O)Nc1ccc(F)c(C#N)c1)C1C[S+]([O-])Cc2[nH]c(=O)c3cc(F)ccc3c21` (single isomer, unassigned) [Compound 202, 3-(3-Cyano-4-fluorophenyl)-1-(8-fluoro-3-oxido-6-oxo-1,4,5,6-tetrahydro-2H-thiopyrano[3,4-c]isoquinolin-1-yl)-1-methylurea], for which the EC50 was no less than 25 µM.
The same measure, in the same setting: the figure for `CN(C(=O)Nc1ccc(F)c(C#N)c1)C1CNCc2[nH]c(=O)c3cc(F)c(F)cc3c21` (single isomer, unassigned) [Compound 175, 3-(3-Cyano-4-fluorophenyl)-1-(8,9-difluoro-6-oxo-1,2,3,4,5,6-hexahydrobenzo[c][1,7]naphthyridin-1-yl)-1-methylurea] is 1.5 µM; for `CN(C(=O)Nc1ccc(F)c(F)c1)C1COCc2[nH]c(=O)c3c(c21)CCOC3` (single isomer, unassigned) [Compound 93, 3-(3,4-Difluorophenyl)-1-methyl-1-(6-oxo-1,2,4,5,6,7,9,10-octahydrodipyrano[3,4-b:4′,3′-d]pyridin-1-yl)urea] it is no less than 25 µM.
Take `CN(C(=O)Nc1ccc(F)c(C#N)c1)C1C[S+]([O-])Cc2[nH]c(=O)c3cc(F)c(F)cc3c21` (single isomer, unassigned) [Compound 214, 3-(3-Cyano-4-fluorophenyl)-1-(8,9-difluoro-3-oxido-6-oxo-1,4,5,6-tetrahydro-2H-thiopyrano[3,4-c]isoquinolin-1-yl)-1-methylurea]: the EC50 amounted to 15 µM.

Staying with this assay, now noted: read-out: DE-19bDNA EC50; inhibition of rcDNA formation in HepDE19 cells (HepG2 derived), Tet-free medium, 7 day incubation, Quantigene 2.0 bDNA readout, top concentration 25 μM.
Regarding `CN(C(=O)Nc1cccc(Cl)c1)C1COCc2[nH]c(=O)c3cc(F)c(F)cc3c21` (single isomer, unassigned) [Compound 120, 3-(3-Chlorophenyl)-1-(8,9-difluoro-6-oxo-1,4,5,6-tetrahydro-2H-pyrano[3,4-c]isoquinolin-1-yl)-1-methylurea], the EC50 worked out at 0.01 µM.
